Like-named read-outs stand apart in the source and are kept apart here.
How the values were obtained:
Assay in all cases: Post-emergence efficacy, Method A
Format in all cases: in vivo
[1] = test system: Echinochloa crus-galli (ECHCG); conditions: Echinochloa crus-galli, post-emergence, 312 h, evaluated after 13 days
Outline: (§1)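 Post-emergence spray on 14-day-old glasshouse plants (24/16 °C day/night, 14 h photoperiod, 65% humidity). Test material was taken up in acetone and IF50 emulsifier mix, then diluted with sodium lauryl ether sulphate (0.25% or 1%) plus 1% ammonium sulphate. Damage was rated 13 days later, 100 = total.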

Eleusine indica (ELEIN) = conditions: Eleusine indica, post-emergence, 312 h, evaluated after 13 days
Outline: as §1

[2] = test system: Digitaria sanguinalis (DIGSA); conditions: Digitaria sanguinalis, post-emergence, 312 h, evaluated after 13 days
Outline: as §1

[3] = test system: Amaranthus palmeri (AMAPA); conditions: evaluated after 13 days; for pest or weed control at 500 g/ha: Amaranthus palmeri, post-emergence, 312 h
Outline: as §1

[4] = test system: Chenopodium album (CHEAL); conditions: Chenopodium album, post-emergence, 312 h, evaluated after 13 days
Outline: as §1

[5] = test system: Euphorbia heterophylla (EPHHL); conditions: Euphorbia heterophylla, post-emergence, 312 h, evaluated after 13 days
Outline: as §1

[6] = test system: Ipomoea hederacea (IPOHE); conditions: Ipomoea hederacea, post-emergence, 312 h, evaluated after 13 days
Outline: as §1

Lolium perenne (LOLPE) = conditions: Lolium perenne, post-emergence, 312 h, evaluated after 13 days
Outline: as §1

Setaria faberi (SETFA) = conditions: Setaria faberi, post-emergence, 312 h, evaluated after 13 days
Outline: as §1

[7] = Application rate 500 g/Ha, 100=total damage to plant, 0=no damage to plant, read-out: Control of weed species after post-emergence application, ECHCG
[8] = Application rate 500 g/Ha, 100=total damage to plant, 0=no damage to plant, read-out: Control of weed species after post-emergence application, ELEIN
[9] = Application rate 500 g/Ha, 100=total damage to plant, 0=no damage to plant, read-out: Control of weed species after post-emergence application, DIGSA
[10] = Application rate 500 g/Ha, 100=total damage to plant, 0=no damage to plant, read-out: Control of weed species after post-emergence application, CHEAL
[11] = Application rate 500 g/Ha, 100=total damage to plant, 0=no damage to plant, read-out: Control of weed species after post-emergence application, EPHHL
[12] = Application rate 500 g/Ha, 100=total damage to plant, 0=no damage to plant, read-out: Control of weed species after post-emergence application, IPOHE
[13] = Application rate 500 g/Ha, 100=total damage to plant, 0=no damage to plant, read-out: Control of weed species after post-emergence application, LOLPE
[14] = Application rate 500 g/Ha, 100=total damage to plant, 0=no damage to plant, read-out: Control of weed species after post-emergence application, SETFA
[15] = Application rate 500 g/Ha, 100=total damage to plant, 0=no damage to plant, read-out: Control of weed species after post-emergence application, AMAPA
[16] = Application Rate 500 g/Ha, Method A, read-out: Control of weed species after post-emergence application, ECHCG (100=total damage to plant; 0=no damage to plant)
[17] = Application Rate 500 g/Ha, Method A, read-out: Control of weed species after post-emergence application, ELEIN (100=total damage to plant; 0=no damage to plant)
[18] = Application Rate 500 g/Ha, Method A, read-out: Control of weed species after post-emergence application, DIGSA (100=total damage to plant; 0=no damage to plant)
[19] = Application Rate 500 g/Ha, Method A, read-out: Control of weed species after post-emergence application, AMAPA (100=total damage to plant; 0=no damage to plant)
[20] = Application Rate 500 g/Ha, Method A, read-out: Control of weed species after post-emergence application, CHEAL (100=total damage to plant; 0=no damage to plant)
[21] = Application Rate 500 g/Ha, Method A, read-out: Control of weed species after post-emergence application, EPHHL (100=total damage to plant; 0=no damage to plant)
[22] = Application Rate 500 g/Ha, Method A, read-out: Control of weed species after post-emergence application, IPOHE (100=total damage to plant; 0=no damage to plant)
[23] = Application Rate 500 g/Ha, Method A, read-out: Control of weed species after post-emergence application, LOLPE (100=total damage to plant; 0=no damage to plant)
[24] = Application Rate 500 g/Ha, Method A, read-out: Control of weed species after post-emergence application, SETFA (100=total damage to plant; 0=no damage to plant)

Row | Structure (SMILES) | pest or weed control at 500 g/ha [1, 7] [%] | pest or weed control at 500 g/ha (Eleusine indica (ELEIN); [8]) [%] | pest or weed control at 500 g/ha [2, 9] [%] | Control of weed species after post-emergence application, AMAPA ([3]; Application rate 500 g/Ha, 100=total damage to plant, 0=no damage to plant) | pest or weed control at 500 g/ha [4, 10] [%] | pest or weed control at 500 g/ha [5, 11] [%] | pest or weed control at 500 g/ha [6, 12] [%] | pest or weed control at 500 g/ha (Lolium perenne (LOLPE); [13]) [%] | pest or weed control at 500 g/ha (Setaria faberi (SETFA); [14]) [%] | pest or weed control at 500 g/ha [3, 15] [%] | pest or weed control at 500 g/ha [1, 16] [%] | pest or weed control at 500 g/ha (Eleusine indica (ELEIN); [17]) [%] | pest or weed control at 500 g/ha [2, 18] [%] | pest or weed control at 500 g/ha [3, 19] [%] | pest or weed control at 500 g/ha [4, 20] [%] | pest or weed control at 500 g/ha [5, 21] [%] | pest or weed control at 500 g/ha [6, 22] [%] | pest or weed control at 500 g/ha (Lolium perenne (LOLPE); [23]) [%] | pest or weed control at 500 g/ha (Setaria faberi (SETFA); [24]) [%]
1 | Cc1n[n+](CCC(=O)O)ccc1-c1ncccn1.O=C([O-])C(F)(F)F [Compound A132] | 70 | 90 | 90 | 90 | 30 | 30 | 10 | 50 | 100 | – | – | – | – | – | – | – | – | – | –
2 | CC(C)(C[n+]1ccc(-c2ncccn2)cn1)S(=O)(=O)[O-] [Compound A114, 2-methyl-1-(4-pyrimidin-2-ylpyridazin-1-ium-1-yl)propane-2-sulfonate] | 60 | 90 | 80 | – | 60 | 80 | 60 | 70 | 40 | 100 | – | – | – | – | – | – | – | – | –
3 | O=c1cc(-c2cc[n+](CCCS(=O)(=O)[O-])nc2)nc[nH]1 [Compound A116] | 20 | 20 | 30 | – | 80 | 50 | 10 | 10 | 30 | 100 | – | – | – | – | – | – | – | – | –
4 | O=S(=O)([O-])CC[n+]1ccc(-c2ncc(Cl)cn2)cn1 [Compound A17] | 40 | 60 | 60 | – | 30 | 30 | 30 | 10 | 40 | 100 | – | – | – | – | – | – | – | – | –
5 | O=C(O)CC[n+]1ccc(-c2ncc(CO)cn2)cn1 [Compound A162] | – | – | – | – | – | – | – | – | – | – | 90 | 80 | 70 | 100 | 70 | 80 | 10 | 90 | 70
6 | Cc1nccc(-c2cc[n+](CCS(=O)(=O)[O-])nc2)n1 [Compound A31] | 60 | 80 | 90 | – | 100 | 50 | 100 | 60 | 50 | 100 | – | – | – | – | – | – | – | – | –
7 | O=S(=O)([O-])CC[n+]1ccc(-c2ncc(F)cn2)cn1 [Compound A19] | 40 | 60 | 50 | – | 60 | 60 | 40 | 20 | 60 | 100 | – | – | – | – | – | – | – | – | –
8 | O=S(=O)([O-])CC[n+]1ccc(-c2ncc(C(F)(F)F)cc2Cl)cn1 [Compound A175] | – | – | – | – | – | – | – | – | – | – | 30 | 40 | 40 | 30 | 60 | 30 | 20 | 10 | 30
9 | O=S(=O)(O)CC[n+]1ccc(-c2ccncc2F)cn1 [Compound A159] | – | – | – | – | – | – | – | – | – | – | 70 | 50 | 30 | 100 | 100 | 80 | 50 | 40 | 60
10 | Cc1n[n+](CCC(=O)O)ccc1-c1ccccn1 [Compound A145] | 0 | 0 | 10 | – | 10 | 10 | 10 | 0 | 0 | 10 | – | – | – | – | – | – | – | – | –
11 | O=C(O)CC[n+]1ccc(-c2ncccc2C(F)(F)F)cn1 [Compound A128] | 30 | 50 | 30 | – | 10 | 0 | 0 | 40 | 30 | 30 | – | – | – | – | – | – | – | – | –
12 | O=C(O)CC[n+]1ccc(-c2ncc(C(F)(F)F)cn2)cn1 [Compound A129] | 90 | 40 | 60 | – | 50 | 70 | 10 | 80 | 60 | 70 | – | – | – | – | – | – | – | – | –

Reference: patent publication US20220125051A1, “PRE-HARVEST DESICCATION METHOD” (SYNGENTA CROP PROTECTION AG, priority 2019, published 2022)
